{
  "source": "patent US20130184337A1",
  "about": "“SODIUM ASCORBATE STIMULATION OF ELASTOGENESIS” (THE HOSPITAL FOR SICK CHILDREN, priority 2012, published 2013)",
  "key": {"[1]": {"molecular_target": "T1, IGF-1 receptor (Homo sapiens, UniProt P08069)", "T1 construct": "immuno-precipitated with antibody to β subunit of IGF-1R and detected by Western blotting with anti-phospho-tyrosine antibody; endogenous in cells; host or cells: cultured dermal fibroblasts", "T1 sequence (P08069 741-1367 limits assumed)": "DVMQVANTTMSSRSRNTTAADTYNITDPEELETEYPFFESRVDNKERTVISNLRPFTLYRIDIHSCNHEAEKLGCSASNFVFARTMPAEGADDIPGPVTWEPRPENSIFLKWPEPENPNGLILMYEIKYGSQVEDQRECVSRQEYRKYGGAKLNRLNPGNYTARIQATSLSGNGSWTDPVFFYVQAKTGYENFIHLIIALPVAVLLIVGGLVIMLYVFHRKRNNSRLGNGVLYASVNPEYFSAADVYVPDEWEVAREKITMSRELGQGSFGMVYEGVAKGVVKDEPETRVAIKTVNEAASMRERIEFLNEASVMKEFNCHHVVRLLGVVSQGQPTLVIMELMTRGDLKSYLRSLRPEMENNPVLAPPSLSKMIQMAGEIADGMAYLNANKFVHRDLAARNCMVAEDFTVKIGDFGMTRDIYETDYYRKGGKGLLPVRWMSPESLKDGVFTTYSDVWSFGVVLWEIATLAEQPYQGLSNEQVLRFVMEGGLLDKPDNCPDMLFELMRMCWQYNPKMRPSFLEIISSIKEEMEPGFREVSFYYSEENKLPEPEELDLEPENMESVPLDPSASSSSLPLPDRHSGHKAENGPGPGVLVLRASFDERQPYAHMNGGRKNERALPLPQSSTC", "T1 sequence (P08069 31-736 partner limits assumed)": "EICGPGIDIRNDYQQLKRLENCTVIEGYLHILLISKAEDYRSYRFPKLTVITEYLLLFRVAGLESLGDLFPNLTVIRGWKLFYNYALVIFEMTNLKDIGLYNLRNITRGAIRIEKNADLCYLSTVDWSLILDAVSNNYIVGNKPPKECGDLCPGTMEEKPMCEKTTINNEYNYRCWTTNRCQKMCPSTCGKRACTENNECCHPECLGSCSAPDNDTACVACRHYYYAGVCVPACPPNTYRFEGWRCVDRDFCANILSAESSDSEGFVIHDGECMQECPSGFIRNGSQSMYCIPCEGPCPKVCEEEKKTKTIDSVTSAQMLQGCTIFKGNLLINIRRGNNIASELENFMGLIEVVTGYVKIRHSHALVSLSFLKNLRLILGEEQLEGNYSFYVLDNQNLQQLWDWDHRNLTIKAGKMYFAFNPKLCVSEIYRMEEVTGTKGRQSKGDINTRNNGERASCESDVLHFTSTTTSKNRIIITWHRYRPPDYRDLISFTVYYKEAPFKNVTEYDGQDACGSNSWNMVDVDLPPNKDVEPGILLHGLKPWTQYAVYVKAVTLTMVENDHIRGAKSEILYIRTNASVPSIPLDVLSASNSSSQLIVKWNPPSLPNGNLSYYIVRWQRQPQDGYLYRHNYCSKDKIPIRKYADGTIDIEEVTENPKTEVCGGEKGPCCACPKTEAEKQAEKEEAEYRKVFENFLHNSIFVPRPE", "experiment": "IGF-1R phosphorylation (immuno-precipitation, anti-phospho-tyrosine Western blot)", "assay_type": "cell-based", "settings": "for levels of IGF-1R phosphorylation: 100 μM SA alone", "experimental": "At the end of each experiment cells were submerged in the lysis buffer containing a broad-range phosphatase inhibitor. The polyclonal antibodies recognizing either the β subunits of the IGF-IR or the β subunit of the insulin receptor were immobilized on separate sets of the IgG-bearing magnetic beads (Invitrogen Canada Inc, Burlington, ON) and then incubated for 1 hour with the aliquots of the cell lysates containing 400 μg of protein as described in the manufacturer protocol. The beads bearing the resulting immuno-precipitation products were re-suspended in sample buffer and the released proteins were resolved with SDS-PAGE and subjected to Western blotting with a monoclonal anti-p-Tyr (PY99) antibody from Santa Cruz Biotechnology Inc. (Santa Cruz, Calif.) and then with HRP-conjugated goat anti-mouse secondary antibody."}, "[2]": {"system": "intracellular tropoelastin", "experiment": "Western blot of intracellular tropoelastin", "assay_type": "cell-based, human", "settings": "50-200 μM, 20-hour-old cultures, 5% FBS", "experimental": "Western Blots—At the end of indicated experiments, cells were lysed with NP-40 buffer containing a cocktail of broad spectrum inhibitors of proteinases and phosphatases. The 50 μg aliquots of protein extract were then resolved by SDS-PAGE gel (4-12% gradient) in reducing conditions and analyzed by Western blot with antibodies indicated in figure legends, as previously described. Initial blots were also re-probed with monoclonal anti-β-actin antibody (Cell Signaling Technology Inc., Danvers, Mass.) to confirm the equal protein loading. The degree of expression was measured by densitometry."}, "[3]": {"system": "normal dermal fibroblasts", "experiment": "Elastic fiber deposition (immuno-staining morphometry, [3H]-valine insoluble elastin) in monolayer cultures", "assay_type": "cell-based, human", "experimental": "Cell Cultures—Fibroblasts initially grew out from the explants of these full thickness skin biopsies and were maintained. The primary cultures of fat-derived fibroblasts obtained from Thermogenesis (Rancho Cordova, Calif.) were also tested. In all described experiments, 2-4 passages of both kinds of fibroblasts were used. In experiments aimed at assessing ECM production, cells were initially plated at a concentration of 100,000 cells/dish.\nImmuno-staining—All cultures maintained in the presence and absence of indicated reagents were either fixed in cold 100% methanol at −20° C. (for detection of elastin) or in 4% paraformaldehyde at room temperature (for detection of collagen I). The multiple parallel cultures were then incubated with 10 μg/ml of polyclonal antibody to tropoelastin (Elastin Products, Owensville, Mich.), or polyclonal antibody to collagen type I (Chemicon, Temecula, Calif.). Cultures were then incubated with the respective fluorescein-conjugated goat anti-rabbit, goat anti-mouse, or rabbit anti-goat secondary antibodies. Nuclei were counterstained with propidium iodide (Sigma, Sigma, St. Louis, Mo.). All of the cultures were then examined with a Nikon Eclipse E1000 microscope attached to a cooled CCD camera (QImaging, Retiga EX) and analyzed by the computer-generated morphometric analysis system (Image-Pro Plus software, Media Cybernetics, Silver Springs, Md.) as previously described.\nQuantitative Assays of Insoluble Elastin—Fibroblasts were grown to confluency in 35-mm culture dishes (100,000 cells/dish). Next, 2 μCi of [3H]-valine/ml (Amersham Biosciences Ltd. Oakville, Canada), were added to each dish along with or without the indicated treatments. At the end of each experiment, the levels of metabolically labeled NaOH-insoluble elastin present in individual cultures were assayed and normalized per their DNA content."}, "[4]": {"system": "explants of dermal stretch marks", "experiment": "Organ culture of skin explants (Movat pentachrome morphometry, insoluble elastin)", "assay_type": "cell-based, human", "settings": "200 μM, 10-day-long daily treatment", "experimental": "The parallel quadruplicate explants from each experimental group were additionally maintained in the presence 2 μCi of [3H]-valine/ml and then subjected to the assay of insoluble elastin. The parallel explants from each experimental groups were also evaluated after pentachrome Movat's staining which allows for clear marking of elastic fibers. In each experimental group, 50 sections derived from quadruplicate explants were analyzed."}, "[5]": {"system": "fibroblasts derived from dermal stretch marks", "experiment": "Collagen and elastic fiber deposition in stretch-mark fibroblast cultures", "assay_type": "cell-based, human", "settings": "200 μM, 24 hour-old cultures", "experimental": "Cell Cultures-Fibroblasts initially grew out from the explants of these full thickness skin biopsies and were maintained. The primary cultures of fat-derived fibroblasts obtained from Thermogenesis (Rancho Cordova, Calif.) were also tested. In all described experiments, 2-4 passages of both kinds of fibroblasts were used. In experiments aimed at assessing ECM production, cells were initially plated at a concentration of 100,000 cells/dish. […] Immuno-staining-All cultures maintained in the presence and absence of indicated reagents were either fixed in cold 100% methanol at -20° C. (for detection of elastin) or in 4% paraformaldehyde at room temperature (for detection of collagen I). The multiple parallel cultures were then incubated with 10 μg/ml of polyclonal antibody to tropoelastin (Elastin Products, Owensville, Mich.), or polyclonal antibody to collagen type I (Chemicon, Temecula, Calif.). Cultures were then incubated with the respective fluorescein-conjugated goat anti-rabbit, goat anti-mouse, or rabbit anti-goat secondary antibodies. Nuclei were counterstained with propidium iodide (Sigma, Sigma, St. Louis, Mo.). All of the cultures were then examined with a Nikon Eclipse […] microscope attached to a cooled CCD camera (QImaging, Retiga EX) and analyzed by the computer-generated morphometric analysis system (Image-Pro Plus software, Media Cybernetics, Silver Springs, Md.) as previously described. Quantitative Assays of Insoluble Elastin-Fibroblasts were grown to confluency in 35-mm culture dishes (100,000 cells/dish). Next, 2 μCi of [3H]-valine/ml (Amersham Biosciences Ltd. Oakville, Canada), were added to each dish along with or without the indicated treatments. At the end of each experiment, the levels of metabolically labeled NaOH-insoluble elastin present in individual cultures were assayed and normalized per their DNA content."}, "[6]": {"system": "tropoelastin mRNA", "experiment": "RT-PCR of tropoelastin mRNA normalized to GAPDH mRNA", "assay_type": "cell-based, human", "settings": "50-200 μM, 18 hours, medium with 5% FBS", "experimental": "One-Step RT-PCR Analysis—The confluent cultures of skin fibroblasts were treated with or without the reagents of interest for different periods of time as indicated in the figure legend. Total RNA was extracted using the RNeasy Mini Kit, and the one-step RT-PCR reactions were set up with the RT-PCR Kit, according to the manufacturer's (Qiagen, Mississauga, ON) instructions. The amounts of tropoelastin mRNA were always normalized to the amount of GAPDH mRNA."}},
  "note": "“Also recorded” adds a separate entry of the source.",
  "data": [
    {"smiles": "O=C1O[C@H]([C@@H](O)CO)C([O-])=C1O.[Na+]", "note": "[SA, (+)-sodium L-ascorbate]", "values": [
      {"measurement": "levels of IGF-1R phosphorylation", "setting": "[1]; medium with FBS", "result": "remarkably enhanced levels of IGF-1R phosphorylation; also recorded: enhances the level of phosphorylation of the IGF-1R"},
      {"measurement": "levels of IGF-1R phosphorylation", "setting": "[1]; serum-free medium", "result": "did not reveal any increase in IGF-1R phosphorylation"},
      {"measurement": "levels of IGF-1-induced IGF-1R phosphorylation", "setting": "[1]; 100 μM SA plus 50 ng/ml IGF-1, both tested media", "result": "significantly enhanced the levels of phosphorylated IGF-IR; also recorded: enhances levels of IGF-1-induced IGF-IR phosphorylation in both tested media"},
      {"measurement": "levels of newly synthesized tropoelastin", "setting": "[2]", "result": "increase in the levels of newly synthesized tropoelastin"},
      {"measurement": "production of immuno-detectable elastic fibers", "setting": "[3]; 50 μM to 200 μM, 24-hour-old cultures, 5% FBS", "result": "significantly stimulated production of immuno-detectable elastic fibers; also recorded: upregulate production of elastic fibers"},
      {"measurement": "elastin deposition, SA added to IGF-1", "setting": "[3]; 100 μM SA added to 50 ng/ml IGF-1", "result": "significantly up-regulated the levels of elastin deposition"},
      {"measurement": "elastogenesis, SA added to dexamethasone", "setting": "[3]; 100 μM SA added to 1 μM dexamethasone", "result": "did not further enhance the increase in elastogenesis"},
      {"measurement": "elastogenesis / net deposition of new elastic fibers", "setting": "[3]; 100 μM alone, 24 hours, 5% FBS", "result": "remarkable up-regulation in the net deposition of new elastic fibers; also recorded: similarly strong elastogenic effects as treatment with 50 ng/ml of exogenous IGF-1; also recorded: upregulates elastogenesis only in cultures of dermal fibroblasts maintained in media containing 5% FBS"},
      {"measurement": "deposition of elastic fibers", "setting": "[3]; 400 μM, 24-hour-old cultures, 5% FBS", "result": "did not further stimulate deposition of elastic fibers"},
      {"measurement": "elastogenesis", "setting": "[3]; 800 μM, 24-hour-old cultures, 5% FBS", "result": "clear inhibition of elastogenesis; also recorded: inhibits elastogenesis"},
      {"measurement": "elastogenic effects in serum-free medium", "setting": "[3]; SA, 18-24 hour-old cultures, serum-free medium", "result": "could not be observed in cultures maintained in serum-free medium"},
      {"measurement": "elastogenesis", "setting": "[4]", "result": "restored the practically non-existent elastogenesis"},
      {"measurement": "production of collagen fibers", "setting": "[5]", "result": "significantly up-regulated"},
      {"measurement": "production of elastic fibers / elastogenesis", "setting": "[5]", "result": "significantly up-regulated"},
      {"measurement": "levels of tropoelastin-encoding mRNA", "setting": "[6]", "result": "significant and dose-dependent up-regulation"}
    ]}
  ]
}
